The values below come from ChEMBL document CHEMBL1135176, “Combinatorial synthesis and biological evaluation of isoxazole-based libraries as antithrombotic agents” (2002).

Experiment [1] relates to Mus musculus. Briefly: In vivo antithrombotic activity in Swiss mice was determined when the compound was administered at 30 umol/kg orally 1 hour prior to challenge. The class given is functional.
Experiment [2] relates to Mus musculus. Briefly: In vivo increase in the bleeding time was determined when administered at 30 umol/kg orally 1 hour prior to challenge. Type of experiment: functional.

For the molecule `NCCCCC(C(N)=O)N(Cc1ccc([N+](=O)[O-])cc1)Cc1cc(-c2ccccc2)on1` (configuration not stated), in experiment [1], the Protection amounted to 30%.
In the case of `NC(=O)C(Cc1c[nH]cn1)N(Cc1ccccc1)Cc1cc(-c2ccccc2)on1` (configuration not stated), the Protection in experiment [1] stood at 50%. In addition, the Increase in experiment [2] was 81%.
Molecule `Cc1ccc(-c2cc(CN(Cc3ccccc3)C(Cc3ccc(O)cc3)C(N)=O)no2)cc1` (configuration not stated) returned a Protection in experiment [1] of 60%. In experiment [2], this molecule returned an Increase of 20%.
In experiment [1], `NC(=O)C(Cc1ccc(O)cc1)N(Cc1ccc(Br)cc1)Cc1cc(-c2ccccc2)on1` (configuration not stated) had a Protection of 20%.
Molecule `CC(C)=CCC(C(N)=O)N(Cc1ccccc1)Cc1cc(-c2ccccc2)on1` (configuration not stated) registered a Protection in experiment [1] of 30%.
Turning to `Cc1ccc(-c2cc(CN(Cc3cccc([N+](=O)[O-])c3)C(Cc3c[nH]cn3)C(N)=O)no2)cc1` (configuration not stated), the Protection in experiment [1] is 60%. In experiment [2], this molecule registered an Increase of 40%.
Molecule `NC(=O)C(Cc1ccccc1)N(Cc1ccccc1)Cc1cc(-c2ccccc2)on1` (configuration not stated) registered a Protection in experiment [1] of 30%.
Molecule `N#Cc1ccc(CN(Cc2cc(-c3ccccc3Cl)on2)C(Cc2ccc(O)cc2)C(N)=O)cc1` (configuration not stated) came in with a Protection in experiment [1] of 40%.
In experiment [1], `Cc1ccc(-c2cc(CN(Cc3ccccc3)C(CCCN=C(N)N)C(N)=O)no2)cc1` (configuration not stated) returned a Protection of 10%.
`Cc1ccc(-c2cc(CN(Cc3cccc(C)c3)C(Cc3ccccc3)C(N)=O)no2)cc1` (configuration not stated) displayed a Protection in experiment [1] of 50%. Also, the Increase in experiment [2] is reported as 0%.
Take `Cc1ccc(CN(Cc2cc(-c3ccccc3)on2)C(Cc2c[nH]cn2)C(N)=O)cc1` (configuration not stated): in experiment [1], the Protection is listed as 40%.
Consider `NC(=O)CCC(C(N)=O)N(Cc1ccc(Br)cc1)Cc1cc(-c2ccccc2Cl)on1` (configuration not stated), for which, in experiment [1], the Protection was 20%.
The same measure, in the same setting: in the case of `NC(=O)C(Cc1ccccc1)N(Cc1ccccc1)Cc1cc(-c2ccccc2Cl)on1` (configuration not stated) it was 30%.
On to `N#Cc1ccc(CN(Cc2cc(-c3ccccc3)on2)C(CCC(N)=O)C(N)=O)cc1` (configuration not stated), for which the Protection in experiment [1] stood at 70%. In addition, the Increase in experiment [2] turned out to be 62%.
For the molecule `NC(=O)C(CO)N(Cc1ccccc1)Cc1cc(-c2ccccc2)on1` (configuration not stated), the Protection in experiment [1] turned out to be 60%. In experiment [2], the Increase worked out at 58%.
As for `Cc1ccc(-c2cc(CN(CC(N)=O)Cc3ccccc3)no2)cc1`, the Protection in experiment [1] was 20%.
In experiment [1], `NC(=O)C(Cc1ccccc1)N(Cc1ccc(Br)cc1)Cc1cc(-c2ccccc2)on1` (configuration not stated) came in with a Protection of 20%.
On to `Cc1ccc(-c2cc(CN(Cc3ccc(Br)cc3)C(CCCN=C(N)N)C(N)=O)no2)cc1` (configuration not stated), for which the Protection in experiment [1] came out at 40%.
For the molecule `Cc1ccc(-c2cc(CN(Cc3ccc(C#N)cc3)C(CCCCN)C(N)=O)no2)cc1` (configuration not stated), the Protection in experiment [1] is reported as 40%.
Molecule `Cc1ccc(-c2cc(CN(Cc3ccc(C#N)cc3)C(Cc3ccc(O)cc3)C(N)=O)no2)cc1` (configuration not stated) came in with a Protection in experiment [1] of 20%.
The molecule `NC(=O)C(Cc1ccccc1)N(Cc1ccc([N+](=O)[O-])cc1)Cc1cc(-c2ccccc2Cl)on1` (configuration not stated) returned a Protection in experiment [1] of 20%.
Consider `N#Cc1ccc(CN(Cc2cc(-c3ccccc3Cl)on2)C(Cc2ccccc2)C(N)=O)cc1` (configuration not stated), for which, in experiment [1], the Protection was found to be 50%. In experiment [2], this molecule had an Increase of 0%.
`N=C(N)NCCCC(C(N)=O)N(Cc1ccc(Br)cc1)Cc1cc(-c2ccccc2)on1` (configuration not stated) showed a Protection in experiment [1] of 80%. The Increase in experiment [2] is recorded as 25%.
On to `Cc1ccc(-c2cc(CN(Cc3ccccc3)C(CCCCN)C(N)=O)no2)cc1` (configuration not stated), for which the Protection in experiment [1] was determined as 40%.
Turning to `N#Cc1ccc(CN(Cc2cc(-c3ccccc3Cl)on2)C(CO)C(N)=O)cc1` (configuration not stated), the Protection in experiment [1] was determined as 10%.
In turn, `CC(C)=CCC(C(N)=O)N(Cc1ccc(C#N)cc1)Cc1cc(-c2ccccc2)on1` (configuration not stated) returned a Protection in experiment [1] of 20%.
`Cc1ccc(-c2cc(CN(Cc3ccccc3)C(CO)C(N)=O)no2)cc1` (configuration not stated) displayed a Protection in experiment [1] of 60%. Also, the Increase in experiment [2] stood at 79%.
As to `NC(=O)C(Cc1ccc(O)cc1)N(Cc1ccc(Br)cc1)Cc1cc(-c2ccccc2Cl)on1` (configuration not stated), the Protection in experiment [1] is 60%.
As to `Cc1ccc(-c2cc(CN(Cc3cccc([N+](=O)[O-])c3)C(CCCCN)C(N)=O)no2)cc1` (configuration not stated), the Protection in experiment [1] turned out to be 20%.
`Cc1ccc(-c2cc(CN(Cc3cccc(Br)c3)C(CCCCN)C(N)=O)no2)cc1` (configuration not stated) gave a Protection in experiment [1] of 40%.
Consider `N=C(N)NCCCC(C(N)=O)N(Cc1ccccc1)Cc1cc(-c2ccccc2Cl)on1` (configuration not stated), for which, in experiment [1], the Protection was found to be 40%.
`N#Cc1ccc(CN(Cc2cc(-c3ccccc3)on2)C(CO)C(N)=O)cc1` (configuration not stated) came in with a Protection in experiment [1] of 30%.
Regarding `NC(=O)C(CO)N(Cc1ccc(Br)cc1)Cc1cc(-c2ccccc2Cl)on1` (configuration not stated), the Protection in experiment [1] is recorded as 70%. In experiment [2], the Increase is recorded as 50%.
Consider `Cc1ccc(-c2cc(CN(Cc3ccc(C#N)cc3)C(CO)C(N)=O)no2)cc1` (configuration not stated), for which the Protection in experiment [1] is recorded as 60%. Further, the Increase in experiment [2] amounted to 41%.
For `CC(C)=CCC(C(N)=O)N(Cc1ccc(C)cc1)Cc1cc(-c2ccccc2)on1` (configuration not stated), the Protection in experiment [1] is on record as 20%.
Molecule `N#Cc1ccc(CN(Cc2cc(-c3ccccc3)on2)C(Cc2c[nH]cn2)C(N)=O)cc1` (configuration not stated) displayed a Protection in experiment [1] of 50%. Moreover, the Increase in experiment [2] was 80%.
For `NC(=O)C(Cc1c[nH]cn1)N(Cc1ccc([N+](=O)[O-])cc1)Cc1cc(-c2ccccc2)on1` (configuration not stated), in that order: 60% and 30%.
`Cc1ccc(CN(Cc2cc(-c3ccccc3)on2)C(CCCCN)C(N)=O)cc1` (configuration not stated) had a Protection in experiment [1] of 20%.
Take `N#Cc1ccc(CN(Cc2cc(-c3ccccc3)on2)C(CCCNC(=N)N)C(N)=O)cc1` (configuration not stated): the Protection in experiment [1] came out at 50%. Moreover, in experiment [2], the Increase was 31%.
On to `N#Cc1ccc(CN(Cc2cc(-c3ccccc3Cl)on2)C(CCCNC(=N)N)C(N)=O)cc1` (configuration not stated), for which the Protection in experiment [1] worked out at 90%. The molecule also registered an Increase in experiment [2] of 87.5%.
The molecule `NC(=O)C(Cc1c[nH]cn1)N(Cc1cccc(Br)c1)Cc1cc(-c2ccccc2)on1` (configuration not stated) displayed a Protection in experiment [1] of 40%.
The molecule `Cc1ccc(-c2cc(CN(Cc3cccc(Br)c3)C(Cc3c[nH]cn3)C(N)=O)no2)cc1` (configuration not stated) displayed a Protection in experiment [1] of 10%.
Turning to `NC(=O)C(CO)N(Cc1ccc(Br)cc1)Cc1cc(-c2ccccc2)on1` (configuration not stated), in experiment [1], the Protection is 30%.
As for `Cc1ccc(-c2cc(CN(Cc3ccc(C#N)cc3)C(CCCN=C(N)N)C(N)=O)no2)cc1` (configuration not stated), in experiment [1], the Protection was found to be 40%.
`CC(C)=CCC(C(N)=O)N(Cc1cccc(C)c1)Cc1cc(-c2ccc(C)cc2)on1` (configuration not stated) gave a Protection in experiment [1] of 60%.
Regarding `CC(=O)Oc1ccccc1C(=O)O` [ASPIRIN], the Protection in experiment [1] is on record as 40%. This molecule registered an Increase in experiment [2] of 110%.
